# Source: ChEMBL document CHEMBL3808386, “Targeting Mitogen-Activated Protein Kinase-Activated Protein Kinase 2 (MAPKAPK2, MK2): Medicinal Chemistry Efforts To Lead Small Molecule Inhibitors to Clinical Trials” (J Med Chem, 2016)
# Key:
# [1] = Terminal half life in Sprague-Dawley rat plasma at 3 mg/kg, po; type: ADME, organism-based; details: read-out: beta t1/2 (converted)
# [2] = tested on: Rattus norvegicus; test: Anti-inflammatory activity in po dosed Lewis rat model of LPS-induced acute endotoxemia inflammation assessed as inhibition of LPS-induced TNFalpha production administered through gavage pretreated for 4 hrs followed by LPS challenge measured after 90 mins by ELISA relative to control; type: functional
# [3] = tested on: Rattus norvegicus; test: Anti-inflammatory activity in Lewis rat model of Streptococcal cell wall-induced arthritis assessed as reduction in chronic hind paw swelling up to 100 mg/kg, po bid administered through gavage for 10 to 21 days measured on day 21 by displacement plethysmometric method relative to control; type: functional
# [4] = target: T1, MAP kinase-activated protein kinase 2 (Homo sapiens, UniProt P49137); test: Inhibition of MK2 in human U937 cells assessed as reduction in LPS-stimulated HSP27 phosphorylation at Ser82 preincubated for 1 hr followed by LPS addition measured after 30 mins by Western blot analysis; type: cell-based, U-937
# Target sequence in this assay (P49137 whole entry): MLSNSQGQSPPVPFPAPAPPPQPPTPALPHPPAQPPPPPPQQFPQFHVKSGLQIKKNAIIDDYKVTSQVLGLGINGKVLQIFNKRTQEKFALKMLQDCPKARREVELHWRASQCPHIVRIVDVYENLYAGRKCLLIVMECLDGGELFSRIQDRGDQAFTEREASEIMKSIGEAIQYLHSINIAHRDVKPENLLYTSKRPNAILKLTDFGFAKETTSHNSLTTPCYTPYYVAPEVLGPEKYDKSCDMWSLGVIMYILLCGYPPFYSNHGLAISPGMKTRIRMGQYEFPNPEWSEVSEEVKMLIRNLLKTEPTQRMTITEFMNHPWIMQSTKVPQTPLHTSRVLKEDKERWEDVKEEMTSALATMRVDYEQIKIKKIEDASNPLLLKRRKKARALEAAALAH
# [5] = Inhibition of MRP2 in MDCK cells after 15 mins by Calcein-AM assay; type: cell-based, Canis lupus familiaris
# [6] = tested on: U-937; test: Inhibition of LPS-induced TNFalpha production in human U937 cells preincubated for 1 hr followed by LPS addition measured after 4 hrs by electro-chemiluminescence method; type: functional, cell-based
# [7] = tested on: Canis familiaris; test: Hepatotoxicity in beagle dog assessed as increase in serum bile acids at 750 mg/kg, po qd administered as single dose through gavage by LC-MS/MS analysis relative to control; type: toxicity, organism-based, Canis lupus familiaris; details: in vivo
# [8] = tested on: Canis familiaris; test: Hepatotoxicity in beagle dog assessed as increase in total bilirubin at 750 mg/kg, po qd administered as single dose through gavage by LC-MS/MS analysis relative to control; type: toxicity, organism-based, Canis lupus familiaris; details: in vivo
# [9] = target: Bile salt export pump (Homo sapiens, UniProt O95342); test: Inhibition of human BSEP expressed in recombinant baculovirus infected insect Sf9 cell membrane vesicles assessed as [3H]-taurocholate transport preincubated for 5 mins followed by ATP or AMP addition measured after 5 mins by scintillation counting method
# Sequence of Bile salt export pump (O95342 whole entry): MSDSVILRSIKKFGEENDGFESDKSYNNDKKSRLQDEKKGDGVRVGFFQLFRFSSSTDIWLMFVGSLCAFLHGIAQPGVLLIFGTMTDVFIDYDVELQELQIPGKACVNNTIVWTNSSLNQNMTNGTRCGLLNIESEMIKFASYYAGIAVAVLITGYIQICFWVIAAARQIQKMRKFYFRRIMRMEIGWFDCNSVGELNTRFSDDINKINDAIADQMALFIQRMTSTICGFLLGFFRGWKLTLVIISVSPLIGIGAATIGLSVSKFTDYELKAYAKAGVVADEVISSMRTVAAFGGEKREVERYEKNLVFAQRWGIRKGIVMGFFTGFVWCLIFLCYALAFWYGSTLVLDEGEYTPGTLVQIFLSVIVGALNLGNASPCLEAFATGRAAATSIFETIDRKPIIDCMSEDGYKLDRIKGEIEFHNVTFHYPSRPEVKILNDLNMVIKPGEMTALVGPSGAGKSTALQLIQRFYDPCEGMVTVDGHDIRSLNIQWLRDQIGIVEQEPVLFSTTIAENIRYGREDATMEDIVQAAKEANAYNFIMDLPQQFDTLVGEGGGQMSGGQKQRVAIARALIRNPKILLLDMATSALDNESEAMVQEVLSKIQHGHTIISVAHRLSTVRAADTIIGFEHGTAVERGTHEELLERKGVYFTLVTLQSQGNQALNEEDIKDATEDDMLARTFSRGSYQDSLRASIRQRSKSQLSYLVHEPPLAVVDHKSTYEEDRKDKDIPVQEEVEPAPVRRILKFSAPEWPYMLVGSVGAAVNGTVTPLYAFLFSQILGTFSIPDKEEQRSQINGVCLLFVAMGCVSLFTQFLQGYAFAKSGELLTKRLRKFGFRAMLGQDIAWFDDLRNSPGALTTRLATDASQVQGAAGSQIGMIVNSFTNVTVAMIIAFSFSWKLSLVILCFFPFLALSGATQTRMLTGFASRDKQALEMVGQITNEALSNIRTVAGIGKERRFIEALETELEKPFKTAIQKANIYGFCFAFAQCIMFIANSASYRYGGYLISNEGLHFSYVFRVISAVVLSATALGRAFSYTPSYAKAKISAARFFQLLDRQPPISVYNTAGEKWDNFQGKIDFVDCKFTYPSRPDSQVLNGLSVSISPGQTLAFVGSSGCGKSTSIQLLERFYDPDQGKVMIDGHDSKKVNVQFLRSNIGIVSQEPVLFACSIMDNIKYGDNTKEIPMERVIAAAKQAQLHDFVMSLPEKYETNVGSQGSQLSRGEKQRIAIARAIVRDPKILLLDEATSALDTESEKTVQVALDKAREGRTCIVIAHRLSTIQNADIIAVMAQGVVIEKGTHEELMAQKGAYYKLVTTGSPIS
# [10] = Inhibition of P-gp in MDCK-MDR1 cells after 30 mins by Calcein-AM assay; type: cell-based, Canis lupus familiaris
# [11] = Tmax in Sprague-Dawley rat plasma at 3 mg/kg, po; type: ADME, organism-based
# [12] = target: T2, Interleukin-1 receptor-associated kinase 4 (Homo sapiens) (UniProt Q9NWZ3); test: Inhibition of full length recombinant human N-terminal His6-tagged IRAK4 expressed in baculovirus infected Sf21 cells assessed as residual activity at 300 uM in presence of radiolabelled ATP by radiometric assay relative to control
# T2 sequence (whole entry): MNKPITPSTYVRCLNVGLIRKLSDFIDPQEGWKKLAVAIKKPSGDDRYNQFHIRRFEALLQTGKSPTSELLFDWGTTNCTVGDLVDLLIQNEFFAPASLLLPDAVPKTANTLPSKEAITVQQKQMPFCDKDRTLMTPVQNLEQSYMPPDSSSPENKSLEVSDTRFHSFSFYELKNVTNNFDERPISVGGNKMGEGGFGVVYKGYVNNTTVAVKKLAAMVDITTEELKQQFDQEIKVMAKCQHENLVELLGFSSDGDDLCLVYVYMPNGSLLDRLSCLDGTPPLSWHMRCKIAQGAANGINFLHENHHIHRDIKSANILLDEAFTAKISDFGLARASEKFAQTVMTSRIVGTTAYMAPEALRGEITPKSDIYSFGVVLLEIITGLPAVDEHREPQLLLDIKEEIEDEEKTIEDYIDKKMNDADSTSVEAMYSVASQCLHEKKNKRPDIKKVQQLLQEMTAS
# [13] = target: Rho-associated protein kinase 1 (Homo sapiens) (UniProt Q13464); test: Inhibition of recombinant human N-terminal His6-tagged ROCK1 (17 to 535 residues) expressed in baculovirus infected Sf21 cells assessed as residual activity at 300 uM in presence of radiolabelled ATP by radiometric assay relative to control
# Sequence of Rho-associated protein kinase 1 (Homo sapiens) (Q13464 2-1354 limits assumed): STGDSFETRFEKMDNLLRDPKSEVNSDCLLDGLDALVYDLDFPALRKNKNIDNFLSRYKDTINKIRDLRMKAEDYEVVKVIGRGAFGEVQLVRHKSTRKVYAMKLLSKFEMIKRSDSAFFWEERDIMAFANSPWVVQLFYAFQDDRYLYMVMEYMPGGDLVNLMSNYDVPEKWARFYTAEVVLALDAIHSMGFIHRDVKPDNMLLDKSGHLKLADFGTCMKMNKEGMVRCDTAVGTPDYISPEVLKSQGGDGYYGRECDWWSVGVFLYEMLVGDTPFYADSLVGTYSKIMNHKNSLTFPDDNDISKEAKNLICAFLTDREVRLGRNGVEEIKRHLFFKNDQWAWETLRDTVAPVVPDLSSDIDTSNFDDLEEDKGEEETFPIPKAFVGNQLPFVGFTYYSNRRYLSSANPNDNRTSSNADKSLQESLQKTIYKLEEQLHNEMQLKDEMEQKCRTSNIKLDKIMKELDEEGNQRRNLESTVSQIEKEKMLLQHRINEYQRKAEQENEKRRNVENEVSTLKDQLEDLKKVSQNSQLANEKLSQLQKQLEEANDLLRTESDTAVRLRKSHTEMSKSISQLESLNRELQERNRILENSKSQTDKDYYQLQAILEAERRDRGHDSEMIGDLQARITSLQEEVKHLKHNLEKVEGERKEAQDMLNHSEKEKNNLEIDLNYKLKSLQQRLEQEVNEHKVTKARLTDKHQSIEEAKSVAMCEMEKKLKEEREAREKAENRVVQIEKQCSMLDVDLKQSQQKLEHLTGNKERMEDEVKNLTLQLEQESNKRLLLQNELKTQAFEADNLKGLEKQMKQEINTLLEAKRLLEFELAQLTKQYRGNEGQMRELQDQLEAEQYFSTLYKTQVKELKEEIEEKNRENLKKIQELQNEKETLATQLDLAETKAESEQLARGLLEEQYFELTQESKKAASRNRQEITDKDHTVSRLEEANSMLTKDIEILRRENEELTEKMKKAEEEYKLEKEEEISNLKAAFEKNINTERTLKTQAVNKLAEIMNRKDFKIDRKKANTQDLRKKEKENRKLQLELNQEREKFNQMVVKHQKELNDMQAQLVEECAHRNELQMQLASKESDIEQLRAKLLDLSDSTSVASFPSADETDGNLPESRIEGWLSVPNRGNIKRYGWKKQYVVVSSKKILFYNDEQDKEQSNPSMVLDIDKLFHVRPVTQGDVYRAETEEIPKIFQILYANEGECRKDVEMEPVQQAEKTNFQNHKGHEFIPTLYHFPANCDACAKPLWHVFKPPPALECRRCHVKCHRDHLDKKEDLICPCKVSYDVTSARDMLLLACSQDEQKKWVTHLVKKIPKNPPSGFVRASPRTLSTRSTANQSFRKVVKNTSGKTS
# [14] = target: Myosin light chain kinase, smooth muscle (Homo sapiens) (UniProt Q15746); test: Inhibition of recombinant human N-terminal His6-tagged MLCK (1425 to 1771 residues) expressed in baculovirus infected Sf21 cells assessed as residual activity at 300 uM in presence of radiolabelled ATP by radiometric assay relative to control
# [15] = target: Protein kinase C delta type (Homo sapiens) (UniProt Q05655); test: Inhibition of recombinant human N-terminal His6-tagged amino acids 2-end of PKCdelta expressed in Sf21 cells assessed as residual activity at 300 uM in presence of radiolabelled ATP by radiometric assay relative to control
# Sequence of Protein kinase C delta type (Homo sapiens) (Q05655 whole entry, looked up, the tested form may be a part): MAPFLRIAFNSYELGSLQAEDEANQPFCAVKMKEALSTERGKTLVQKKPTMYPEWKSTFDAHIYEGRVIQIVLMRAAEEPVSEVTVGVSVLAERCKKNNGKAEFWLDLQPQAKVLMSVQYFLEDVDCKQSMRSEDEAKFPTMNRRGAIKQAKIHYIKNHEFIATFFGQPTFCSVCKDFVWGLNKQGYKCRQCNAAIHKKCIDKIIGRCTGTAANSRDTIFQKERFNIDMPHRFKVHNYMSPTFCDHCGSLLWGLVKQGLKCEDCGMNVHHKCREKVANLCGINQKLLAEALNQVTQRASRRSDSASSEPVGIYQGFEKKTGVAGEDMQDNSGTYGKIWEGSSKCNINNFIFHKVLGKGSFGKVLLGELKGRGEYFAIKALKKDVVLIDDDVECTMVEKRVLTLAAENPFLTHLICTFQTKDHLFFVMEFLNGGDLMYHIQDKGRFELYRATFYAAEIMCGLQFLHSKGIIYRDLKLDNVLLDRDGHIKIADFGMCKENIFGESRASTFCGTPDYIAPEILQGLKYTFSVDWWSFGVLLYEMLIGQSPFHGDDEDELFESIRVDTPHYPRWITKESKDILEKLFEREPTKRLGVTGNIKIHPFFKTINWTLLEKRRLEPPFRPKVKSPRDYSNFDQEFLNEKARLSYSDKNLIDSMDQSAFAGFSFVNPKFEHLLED
# [16] = target: RAC-beta serine/threonine-protein kinase (Homo sapiens) (UniProt P31751); test: Inhibition of recombinant human N-terminal His6-tagged PKBbeta (120 to 481 residues) expressed in baculovirus infected Sf21 cells assessed as residual activity at 300 uM in presence of radiolabelled ATP by radiometric assay relative to control
# Sequence of RAC-beta serine/threonine-protein kinase (Homo sapiens) (P31751 whole entry, the tested form may be a part): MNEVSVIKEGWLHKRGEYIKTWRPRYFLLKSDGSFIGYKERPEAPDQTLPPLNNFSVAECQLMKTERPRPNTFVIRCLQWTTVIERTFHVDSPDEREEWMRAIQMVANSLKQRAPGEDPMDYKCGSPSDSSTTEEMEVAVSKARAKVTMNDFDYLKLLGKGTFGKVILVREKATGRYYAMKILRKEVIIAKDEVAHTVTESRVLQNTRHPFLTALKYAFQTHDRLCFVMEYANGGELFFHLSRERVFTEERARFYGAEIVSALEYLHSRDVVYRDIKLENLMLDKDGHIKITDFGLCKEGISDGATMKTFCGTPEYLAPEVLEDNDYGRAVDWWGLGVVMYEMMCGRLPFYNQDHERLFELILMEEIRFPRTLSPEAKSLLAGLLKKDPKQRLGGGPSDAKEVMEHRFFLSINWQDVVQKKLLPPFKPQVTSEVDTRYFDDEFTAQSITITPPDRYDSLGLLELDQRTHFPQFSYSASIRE
# [17] = target: T1, MAP kinase-activated protein kinase 2; test: Inhibition of recombinant human N-terminal GST-tagged MK2 (46 to 400 residues) expressed in Escherichia coli in presence of radiolabelled ATP by radiometric assay
# Target sequence in this assay (P49137 whole entry): as the sequence (P49137 whole entry) above
# [18] = target: Mitogen-activated protein kinase 14 (Homo sapiens) (UniProt Q16539); test: Inhibition of full length recombinant human N-terminal GST-tagged p38alpha MAP kinase expressed in Escherichia coli assessed as residual activity at 300 uM in presence of radiolabelled ATP by radiometric assay relative to control
# Sequence of Mitogen-activated protein kinase 14 (Homo sapiens) (Q16539 whole entry, the tested form may be a part): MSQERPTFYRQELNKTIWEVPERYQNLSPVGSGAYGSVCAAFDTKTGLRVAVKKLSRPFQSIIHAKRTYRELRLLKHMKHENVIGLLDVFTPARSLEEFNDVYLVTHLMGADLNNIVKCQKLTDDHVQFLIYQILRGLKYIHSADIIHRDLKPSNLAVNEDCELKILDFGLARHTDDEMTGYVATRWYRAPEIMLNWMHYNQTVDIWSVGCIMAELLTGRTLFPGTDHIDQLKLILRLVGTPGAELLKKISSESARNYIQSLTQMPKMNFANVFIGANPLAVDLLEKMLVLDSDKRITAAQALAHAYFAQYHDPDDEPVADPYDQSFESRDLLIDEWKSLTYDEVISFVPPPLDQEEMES
# [19] = target: Rho-associated protein kinase 1 (Homo sapiens) (UniProt Q13464); test: Inhibition of recombinant human N-terminal His6-tagged ROCK1 (17 to 535 residues) expressed in baculovirus infected Sf21 cells assessed as residual activity at 30 uM in presence of radiolabelled ATP by radiometric assay relative to control
# [20] = target: RAC-beta serine/threonine-protein kinase (Homo sapiens) (UniProt P31751); test: Inhibition of recombinant human N-terminal His6-tagged PKBbeta (120 to 481 residues) expressed in baculovirus infected Sf21 cells assessed as residual activity at 30 uM in presence of radiolabelled ATP by radiometric assay relative to control
# [21] = tested on: Fibroblast; test: Inhibition of TGF-beta1-induced CTGF expression in serum-starved human keloid fibroblasts at 10 uM preincubated for 2 hrs followed TGF-beta1 addition measured after 24 hrs by Western blot analysis relative to control; type: functional
# [22] = target: Mitogen-activated protein kinase 14 (Homo sapiens) (UniProt Q16539); test: Inhibition of full length recombinant human N-terminal GST-tagged p38alpha MAP kinase expressed in Escherichia coli assessed as residual activity at 30 uM in presence of radiolabelled ATP by radiometric assay relative to control
# [23] = target: T1, MAP kinase-activated protein kinase 2; test: Inhibition of recombinant human N-terminal GST-tagged MK2 (46 to 400 residues) expressed in Escherichia coli assessed as reduction in recombinant human HSP27 phosphorylation at 200 uM after 30 mins by Western blot analysis relative to control
# Target sequence in this assay (P49137 whole entry, looked up): as the sequence (P49137 whole entry) above
# [24] = target: Myosin light chain kinase, smooth muscle (Homo sapiens) (UniProt Q15746); test: Inhibition of recombinant human N-terminal His6-tagged MLCK (1425 to 1771 residues) expressed in baculovirus infected Sf21 cells assessed as residual activity at 30 uM in presence of radiolabelled ATP by radiometric assay relative to control
# [25] = target: T2, Interleukin-1 receptor-associated kinase 4 (Homo sapiens); test: Inhibition of full length recombinant human N-terminal His6-tagged IRAK4 expressed in baculovirus infected Sf21 cells assessed as residual activity at 30 uM in presence of radiolabelled ATP by radiometric assay relative to control
# [26] = target: Protein kinase C delta type (Homo sapiens) (UniProt Q05655); test: Inhibition of recombinant human N-terminal His6-tagged amino acids 2-end of PKCdelta expressed in Sf21 cells assessed as residual activity at 30 uM in presence of radiolabelled ATP by radiometric assay relative to control
# [27] = tested on: Fibroblast; test: Inhibition of TGF-beta1-induced collagen type 1 expression in serum-starved human keloid fibroblasts at 10 uM preincubated for 2 hrs followed TGF-beta1 addition measured after 24 hrs by Western blot analysis relative to control; type: functional
compound,measurement,setting,value
Cc1ccc(-c2ccc3c(ccc4sc5c(c43)NC[C@@H](C)NC5=O)n2)cn1,half-life,[1],9 h
same,inhibition (INH),[2],>90%
same,inhibition (INH),[3],80%
same,IC50,[4],0.201 µM
same,IC50,[5],7 µM
same,IC50,[6],0.15 µM
same,Activity,[7],<= 25000%
same,Activity,[8],<= 25000%
same,IC50,[9],7 µM
same,IC50,[10],7 µM
same,Tmax,[11],0.167 h
H-YARAAARQARAKALNRQLGVAA-OH,Activity,[12],68%
same,Activity,[13],95%
same,Activity,[14],66%
same,Activity,[15],105%
same,Activity,[16],96%
same,IC50,[17],5.8 µM
same,Activity,[18],100%
COCCOCc1cccc(-c2ccc3c(ccc4sc5c(c43)NC[C@@H](C)NC5=O)n2)c1,IC50,[5],7 µM
same,IC50,[9],7 µM
same,IC50,[10],7 µM
CC[C@H](C)[C@H](NC(=O)[C@H](CCCNC(=N)N)NC(=O)[C@H](CCCNC(=N)N)NC(=O)[C@H](CC(C)C)NC(=O)[C@H](Cc1c[nH]c2ccccc12)NC(=O)[C@H](C)NC(=O)[C@H](CCCCN)NC(=O)[C@@H](NC(=O)[C@H](CCCNC(=N)N)NC(=O)[C@H](CCCNC(=N)N)NC(=O)[C@H](CC(C)C)NC(=O)[C@@H](N)Cc1c[nH]c2ccccc12)[C@@H](C)CC)C(=O)N[C@@H](CCCCN)C(=O)N[C@@H](C)C(=O)N[C@@H](CC(C)C)C(=O)N[C@@H](CC(N)=O)C(=O)N[C@@H](CCCNC(=N)N)C(=O)N[C@@H](CCC(N)=O)C(=O)N[C@@H](CC(C)C)C(=O)NCC(=O)N[C@H](C(=O)N[C@@H](C)C(=O)N[C@@H](C)C(=O)O)C(C)C,Activity,[19],0%
same,Activity,[20],18%
same,inhibition at 10 µM,[21],68%
same,Activity,[22],61%
same,inhibition,[23],80%
same,Activity,[24],4%
same,IC50,[17],0.74 µM
same,Activity,[25],12%
same,Activity,[26],11%
same,inhibition at 10 µM,[27],76%
H-KKKALNRQLGVAA-OH,inhibition,[23],64%
